Source: patent US8163709B2, “TAK1-D mediated induction of cell death in human cancer cells by specific sequence short double-stranded RNAS” (Board of Regents of the University of Texas System, priority 2008, dated 2012)

What was measured:
[1] = system: p38 MAPK; assay: p38 MAPK cascade activation in HCC2279 cells (Western blot); type: cell-based, human
Excerpt: A possible application for the above mentioned findings in cancer therapy requires data on the effects of dsRNA mediated activation of Tak1-D in other tumors and in normal tissues. To test whether dsRNA mediated cell killing also occurs in other tumor cell lines, the NSCLC cell line HCC2279 was chosen. This cell line originated from an adenocarcinoma and was initially described by Wistuba et al. (1999).

[2] = system: H460 xenograft tumors; assay: H460 xenograft tumor growth after intratumoral injection; type: in vivo
Procedure: In order to test whether the proposed treatment approach for NSCLC using dsRNA-mediated activation of TAK1-D is feasible in vivo H460 xenograft tumors grown in athymic NCr nu/nu mice were treated with by intratumoral injection of a liposomal dsRNA preparation. About 10 days after subcutaneous injection of […] H460 cells into the left hind leg of the animals tumors had reached a volume of about 300 μl and were injected with 50 μl of liposomal control RNA or active RNA si5. Liposomes consisting of DOTAP and Cholesterol (1:1) were prepared by sonication and extrusion. RNA was bound to the polycation protamine and liposome/polycation/RNA nanoparticles were prepared by mixing the protamine RNA complex with the liposomes. Finally 4 μg of RNA were injected in a volume of 50 μl on day 0 and 1. […].

[3] = target: T1, TAK1-D (Homo sapiens, UniProt O43318); assay: Subcellular localization of TAK1-D in H460 cells (fractionation, immunofluorescence); type: cell-based; set-up: endogenous in cells; host or cells: NCI-H460
T1 sequence (O43318 1-491 isoform O43318-4): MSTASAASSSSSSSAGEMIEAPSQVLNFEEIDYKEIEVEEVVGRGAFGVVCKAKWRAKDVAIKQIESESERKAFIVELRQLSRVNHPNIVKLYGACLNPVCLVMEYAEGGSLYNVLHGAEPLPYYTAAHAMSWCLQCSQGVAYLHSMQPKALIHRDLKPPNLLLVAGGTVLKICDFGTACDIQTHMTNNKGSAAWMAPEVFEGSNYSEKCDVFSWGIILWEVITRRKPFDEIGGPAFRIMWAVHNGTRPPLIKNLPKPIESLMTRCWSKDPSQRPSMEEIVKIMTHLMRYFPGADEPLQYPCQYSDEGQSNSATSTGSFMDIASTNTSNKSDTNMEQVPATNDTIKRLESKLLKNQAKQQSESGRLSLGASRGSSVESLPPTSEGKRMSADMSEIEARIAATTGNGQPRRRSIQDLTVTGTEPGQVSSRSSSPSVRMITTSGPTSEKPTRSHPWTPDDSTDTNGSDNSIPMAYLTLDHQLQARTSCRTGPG
Procedure: Subcellular fractionation. About […] H460 cells growing in a 10 cm dish were transfected with 20 nM dsRNA si5 or si6. […] A crude nuclear pellet (P.7) was obtained by centrifugation at 700 g and 4° C. for 5 minutes. The supernatant was centrifuged at 10,000 g and 4° C. for 30 minutes producing the P10 pellet and finally separated by ultracentrifugation (Sorvall 90SE ultracentrifuge and Sorvall AH-629 rotor) at 150,000 g and 4° C. for 1 hour into pellet (P150) and supernatant (S150). Proteins from the S150 fraction were concentrated by precipitation with 10% trichloroacetic acid (TCA). All pellets were dissolved in SDS sample buffer.
Immunofluorescence. H460 cells stably expressing TAK1-D fused on its c-terminus to a FLAG tag were generated as described above for the K36W mutant. Cells were transfected with 20 nM si5 or si6 and fixed in 4% formaldehyde 6 h later. After 15 min of fixation at room temperature cells were washed 3 times in PBS and permeabilized in methanol at −20° C. for 10 min. After one wash in PBS slides were blocked for 1 hour at room temperature in PBS containing 1% BSA. […] After three 5 min washes in PBS cells were visualized by fluorescence microscopy. […]

For “si5: 21-mer siRNA against TLK1 mRNA: GGCUUUUGACCUUUAUGAAtt (SEQ ID NO: 2) / ttCCGAAAACUGGAAAUACUU (SEQ ID NO: 3) (sense GGCUUUUGACCUUUAUGAATT; antisense TTCCGAAAACUGGAAAUACUU; chemistry not given here; one strand is listed 3' to 5')”, the “activation of p38 MAPK” value [1] was “activate p38 MAPK”, the “normal tissue toxicity (necrosis of skin or tumor vascular system)” value ([2]; intratumoral liposomal preparation) was “no sign of normal tissue toxicity” and the tumor growth kinetics ([2]; intratumoral, liposome (DOTAP:Cholesterol)/protamine/RNA nanoparticles, 4 μg RNA day 0 and 1) was “tumor growth delay”. The “colocalization of FLAG-TAK1-D and ribosomes (S6)” value ([3]; H460, 20 nM, 6 h, immunofluorescence) was “increased colocalization” and the “amount of TAK1-D in the 150,000 g pellet” value ([3]; H460, 4 h, compared to control si6) was “increased”.
